Results from PMC5063506, “A Novel Class of Small Molecule Agonists with Preference for Human over Mouse TLR4 Activation” (PLoS ONE, 2016).
Values after ≈ are worked out from the molar mass of the structure shown. Read-outs that look alike come from different tables or passages of the source.

Key:
human TLR4 = biological target: T1, human TLR4 (Homo sapiens, UniProt O00206+Q9Y6Y9); assay: Human TLR4 NFκB SEAP reporter gene assay in hTLR4-transfected HEK293 cells; type: cell-based; conditions: for EC50: NFκB SEAP reporter, hTLR4-transfected HEK293 cells, 20 h, read-out: Human TLR4 pEC50 (converted)
T1 construct: expressed in transfected cells; host or cells: HEK293 with stably integrated pNiFty2-SEAP reporter
Procedure: (§1) HEK293 cells stably transfected with pNiFty2-SEAP reporter plasmid were transiently transfected with either human or mouse TLR4 (pUNO expression vector), in combination with either human or mouse CD14/MD2 (pDUO expression vector). Transient transfectants were seeded in Dulbecco’s Modified Eagle Medium, FCS 10% (v/v), 2 mM l glutamine and non-essential amino acids. Cells were seeded in tissue culture treated clear flat bottom polystyrene 96 well plates (Costar, 3598) at 1e4 cells/well. Concentration-response curves were generated by addition of test compounds and incubation for 20 h at 37°C in an atmosphere of 5% CO2. LPS (E. coli 0111:B4, Ultra-pure, Invivogen) or PHAD (Avanti Polar Lipids) was used as a positive control. The SEAP released was quantified using p nitrophenyl phosphate as a substrate, and the absorbance at 405 nm was measured at 30 second intervals over several minutes using a microplate reader. Some data are recorded as the pEC50, the negative log of the EC50 value. Other data generated from these reporter cell lines were converted to AUC (area under the curve) values by interpolation of fitted cubic spline curve between OD value and log concentration levels. The calculation is performed using MESS package in statistical software R (www.r-project.org/).

[1] = Intrinsic clearance in presence of rat hepatocytes; type: in vitro ADME; conditions: read-out: Clint rh (intrinsic clearance, rat hepatocytes)
Text: (§2) Fig 2 Optimization stages of Ugi products as TLR4 agonists. *Human TLR-4 NFκB SEAP reporter assays; protocol as described in Methods. Data are reported as pEC50, or negative log of the EC50 values. **Clint rh / hm represents intrinsic clearance in presence of rat hepatocytes (μL/min/10^6 cells) and human microsomes (μL/min/mg protein). […] Thus a drug molecule with LogD >4 might be considered to be very lipophilic and therefore more likely to suffer from rapid metabolic turnover, poor solubility and receptor promiscuity; whereas a LogD range of 1–3 is more likely to be associated with optimal physicochemical and drug-like properties. ^††Solubility was measured by dissolution of solid samples in buffer at pH 7.4.

[2] = Intrinsic clearance in presence of human microsomes; type: in vitro ADME; conditions: read-out: Clint hm (intrinsic clearance, human microsomes)
Text: as §2

[3] = LogD, octanol/water distribution coefficient; type: physicochemical; conditions: pH 7.4; octanol/water distribution coefficient at pH7.4
Text: as §2

[4] = Solubility by dissolution of solid samples in buffer; type: physicochemical; conditions: aqueous buffer, thermodynamic from solid; solid samples in buffer at pH 7.4
Text: as §2

cytochrome P450 enzymes = assay: Inhibition of cytochrome P450 enzymes (unpublished data); type: in vitro ADME; conditions: compared with earlier-stage, more lipophilic Ugi compounds
human TLR4/MD2 = biological target: T2, human TLR4/MD2 (Homo sapiens, UniProt O00206+Q9Y6Y9); assay: hTLR4/MD2-HEK293 transfectant SEAP (QUANTI-Blue) dose response, AUC; type: cell-based; conditions: 1 μg/ml to 4 ng/ml, 24 h, SEAP OD 650 nm vs log concentration
T2 construct: host or cells: HEK293
Procedure: as §1, with “Cells” for “HEK293 cells stably transfected with pNiFty2-SEAP reporter plasmid were transiently transfected with either human or mouse TLR4 (pUNO expression vector), in combination with either human or mouse CD14/MD2 (pDUO expression vector). Transient transfectants were seeded in Dulbecco’s Modified Eagle Medium, FCS 10% (v/v), 2 mM l glutamine and non-essential amino acids. Cells”
(§3) Fig 4 Ugi compounds preferentially activate TLR4-HEK transfectants expressing human MD2. A-B) HEK293 cells transfected with human TLR4/MD2 or mouse TLR4/MD2 (InVivogen) were stimulated with TLR4 agonists including MPL, PHAD, and Ugi compounds at 1 μg/ml to 4 ng/ml and with LPS at 25 ng/ml to 64 pg/ml for 24 h. SNs were analyzed for SEAP content by the QUANTI-Blue assay (InVivogen) and analysis at 650 nm by spectrophotometer. AUC (area under the curve) values were calculated as in Methods. No AUC value was calculated for LPS since it was utilized with a different dose range. C) HEK transfectants with cis- or trans-species expression of TLR4, MD2, and CD14 were stimulated with Ugi compounds in a dose response range of 9 μM to 1 nM or with LPS (boxes) at 75 ng/ml to 5 pg/ml for 48 h. Data was obtained as Vmax calculated over the initial linear portion of the kinetic absorbance measurements. The AUC (area under the curve) value for the dose response curve of Vmax vs log10 (molar units) was calculated for each compound using Trapezoidal rule. TEXT PRINTED IN THE PICTURE: (A) MPL: hTLR4-HEK AUC: 0.55 | (A) AZ617: hTLR4-HEK AUC: 5.90 | (A) AZ618: hTLR4-HEK AUC: 6.56 | (A) AZ839: hTLR4-HEK AUC: 6.00 | (A) AZ161: hTLR4-HEK AUC: 5.54 | (A) AZ902: hTLR4-HEK AUC: 7.04 | (A) GLA: hTLR4-HEK AUC: 3.75 | (B) MPL: mTLR4-HEK AUC: 13.27 | (B) AZ617: mTLR4-HEK AUC: 0.89 | (B) AZ618: mTLR4-HEK AUC: 1.03 | (B) AZ839: mTLR4-HEK AUC: 0.93 | (B) AZ161: mTLR4-HEK AUC: 0.99 | (B) AZ902: mTLR4-HEK AUC: 1.55 | (B) GLA: mTLR4-HEK AUC: 14.24

mouse TLR4/MD2 = biological target: T3, mouse TLR4/MD2 (Mus musculus, UniProt Q9JHF9+Q9QUK6); assay: mTLR4/MD2-HEK293 transfectant SEAP (QUANTI-Blue) dose response, AUC; type: cell-based; conditions: 1 μg/ml to 4 ng/ml, 24 h, SEAP OD 650 nm vs log concentration
T3 construct: host or cells: HEK293
T3 sequence (Q9QUK6 26-835): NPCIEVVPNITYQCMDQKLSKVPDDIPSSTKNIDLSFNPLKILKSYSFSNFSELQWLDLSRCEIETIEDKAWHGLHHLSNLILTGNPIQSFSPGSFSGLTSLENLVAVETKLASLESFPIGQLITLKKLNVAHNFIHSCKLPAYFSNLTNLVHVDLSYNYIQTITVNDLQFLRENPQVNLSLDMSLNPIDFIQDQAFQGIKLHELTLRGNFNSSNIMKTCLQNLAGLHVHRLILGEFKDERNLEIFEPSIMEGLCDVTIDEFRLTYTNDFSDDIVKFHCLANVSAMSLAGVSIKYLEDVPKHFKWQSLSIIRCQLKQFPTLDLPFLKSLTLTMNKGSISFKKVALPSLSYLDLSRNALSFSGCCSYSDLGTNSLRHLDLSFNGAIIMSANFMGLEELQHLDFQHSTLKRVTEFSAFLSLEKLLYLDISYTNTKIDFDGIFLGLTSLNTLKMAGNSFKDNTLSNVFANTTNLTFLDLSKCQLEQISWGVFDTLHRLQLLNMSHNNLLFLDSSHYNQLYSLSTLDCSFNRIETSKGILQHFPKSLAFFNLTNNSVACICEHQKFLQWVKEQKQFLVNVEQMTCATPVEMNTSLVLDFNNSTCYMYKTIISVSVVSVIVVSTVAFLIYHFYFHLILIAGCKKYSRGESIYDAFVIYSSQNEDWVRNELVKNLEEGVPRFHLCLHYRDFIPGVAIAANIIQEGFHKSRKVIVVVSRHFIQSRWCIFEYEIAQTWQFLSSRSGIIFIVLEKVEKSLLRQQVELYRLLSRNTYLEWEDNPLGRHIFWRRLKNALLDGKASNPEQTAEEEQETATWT
T3 sequence (Q9JHF9 19-160): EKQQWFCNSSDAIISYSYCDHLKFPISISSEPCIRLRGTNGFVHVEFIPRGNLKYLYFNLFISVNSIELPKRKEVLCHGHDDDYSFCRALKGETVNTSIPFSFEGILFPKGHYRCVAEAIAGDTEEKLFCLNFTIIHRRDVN
Procedure: as §1, with “Cells” for “HEK293 cells stably transfected with pNiFty2-SEAP reporter plasmid were transiently transfected with either human or mouse TLR4 (pUNO expression vector), in combination with either human or mouse CD14/MD2 (pDUO expression vector). Transient transfectants were seeded in Dulbecco’s Modified Eagle Medium, FCS 10% (v/v), 2 mM l glutamine and non-essential amino acids. Cells”
as §3

C57BL/6 w.t. BMDCs = assay: Cytokine induction in BMDCs of w.t. C57BL/6 mice; type: cell-based, mouse; conditions: 24 h, 1 μg/ml TLR4 agonists, 2 μM R848
Text: (§4) Femur/tibia bones from w.t. C57BL/6, TLR4/MD2 KO, and hTLR4/MD2 KIKO mice were soaked in 10% FBS-RPMI. Muscle and fat tissue was stripped off from the bones with a scalpel, then, bone pairs from individual mice were transferred to 100 mm petri dishes. Femur and tibia bones were separated and the ends cut with dissecting scissors so that bone marrow cells (BMCs) could be removed by flushing the interior of the bones using a 21 G needle and warm 10% FBS-RPMI. BMCs were passed through a 70 μm strainer, followed by RBC lysis. BMCs were cultured in a 70 mm flask for 24 h in the presence of 10 ng/ml (200 unit/ml) of mGM-CSF. Non-adherent cells were collected, washed, and seeded in a 175 cm flask in the presence of 20 ng/ml of mGM-CSF. Every two days, the cells were fed with fresh media and 20 ng/ml mGM-CSF. On day 9, cells were harvested, washed, and stained for CD11c/CD11b expression to determine BMDC density. BMDCs were cultured at 50,000 cells/well for 24 h with 1 μg/ml MPL, LPS, Ugi compounds, or 2 μM R848 (InVivogen).
(§5) Fig 10 Ugi compounds activate mouse BMDCs that express human TLR4/MD2. Bone marrow cells were isolated from femur/tibia bones of w.t. […] BMDCs were harvested at day 9, washed, counted, and stimulated in vitro for 24 h with 1 μg/ml TLR4 agonists and 2 μM R848. SNs were analyzed via mouse MILLIPLEX kits. Data are expressed as the means of 2 mice and are representative of 2 studies.

TLR4/MD2 KO BMDCs = assay: Cytokine induction in BMDCs of mTLR4/MD2 knockout mice; type: cell-based, mouse; conditions: 24 h, 1 μg/ml TLR4 agonists, 2 μM R848
Text: as §4, §5

T1 sequence (O00206 24-839): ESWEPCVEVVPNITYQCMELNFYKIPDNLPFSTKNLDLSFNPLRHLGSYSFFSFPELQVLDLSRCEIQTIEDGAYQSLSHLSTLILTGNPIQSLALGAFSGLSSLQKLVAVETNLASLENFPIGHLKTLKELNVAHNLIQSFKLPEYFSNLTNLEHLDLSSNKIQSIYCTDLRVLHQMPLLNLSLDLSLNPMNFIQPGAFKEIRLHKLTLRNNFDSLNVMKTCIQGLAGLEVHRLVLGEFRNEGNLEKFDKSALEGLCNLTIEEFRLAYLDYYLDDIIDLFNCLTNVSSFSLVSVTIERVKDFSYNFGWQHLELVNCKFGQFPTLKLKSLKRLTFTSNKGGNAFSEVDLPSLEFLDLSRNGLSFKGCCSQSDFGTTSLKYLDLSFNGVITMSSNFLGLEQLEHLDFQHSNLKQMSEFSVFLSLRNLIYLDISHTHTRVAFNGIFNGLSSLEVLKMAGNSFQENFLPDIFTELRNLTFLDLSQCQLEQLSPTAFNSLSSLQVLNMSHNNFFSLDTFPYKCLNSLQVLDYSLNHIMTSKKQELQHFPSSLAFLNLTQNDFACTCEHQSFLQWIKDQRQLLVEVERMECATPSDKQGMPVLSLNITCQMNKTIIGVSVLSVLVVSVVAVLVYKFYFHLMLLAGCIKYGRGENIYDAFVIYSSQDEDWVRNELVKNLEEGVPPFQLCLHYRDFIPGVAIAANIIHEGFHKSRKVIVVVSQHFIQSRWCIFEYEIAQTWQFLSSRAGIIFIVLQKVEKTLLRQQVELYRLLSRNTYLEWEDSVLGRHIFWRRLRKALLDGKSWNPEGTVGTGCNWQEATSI
T1 sequence (Q9Y6Y9 19-160): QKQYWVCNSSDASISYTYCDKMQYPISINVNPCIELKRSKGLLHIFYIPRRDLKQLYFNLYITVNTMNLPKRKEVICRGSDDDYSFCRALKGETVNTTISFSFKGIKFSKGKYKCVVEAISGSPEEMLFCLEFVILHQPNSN
T2 sequence (O00206 24-839): as the sequence (O00206 24-839) above
T2 sequence (Q9Y6Y9 19-160): as the sequence (Q9Y6Y9 19-160) above

SMILES	EC50 (human TLR4) [nM]	logD [3]	further results
COc1ccc(N(C(=O)c2[nH]c(-c3ccccc3)cc2C)C(C(=O)NC2CCCC2)c2ccncc2)cc1 (stereo not shown) [AZ126, N-(2-(cyclopentylamino)-2-oxo-1-(pyridin-4-yl)ethyl)-N-(4-methoxyphenyl)-3-methyl-5-phenyl-1H-pyrrole-2-carboxamide]	2510	> 4.5	hepatocyte CLint ([1]; rat): 28 µL/min/1e6 cells; microsomal CLint ([2]; human): 56 µL/min/mg; solubility [4]: 0.1 µM (≈ 0.0509 µg/mL)
CC(C)c1ccc(N(C(=O)c2cc(-c3ccccc3)n(-c3ccccc3)n2)C(C(=O)NC2CCCC2)c2ccc(CC(=O)NO)cc2)cc1 (stereo not shown) [AZ226]	158	> 4.5	–
CC(C)c1ccc(N(C(=O)c2cc(-c3ccccc3)n(-c3ccccc3)n2)C(C(=O)NC2CCCC2)c2ccc(/C=C/C(=O)O)cc2)cc1 (stereo not shown) [AZ368, (E)-3-(4-(2-(cyclopentylamino)-1-(N-(4-isopropylphenyl)-1,5-diphenyl-1H-pyrazole-3-carboxamido)-2-oxoethyl)phenyl)acrylic acid]	1.58	–	–
C#Cc1ccc(C(C(=O)NC2CCCC2)N(C(=O)c2ccc(-c3ccccc3)[nH]2)c2ccc(OC)cc2)cc1 (stereo not shown) [AZ462]	1000	> 4.5	–
CCCCCCCCCCCCCC(=O)O[C@H](CCCCCCCCCCC)CC(=O)O[C@@H]1[C@@H](NC(=O)C[C@H](CCCCCCCCCCC)OC(=O)CCCCCCCCCCCCC)[C@H](OC[C@H]2O[C@H](O)[C@H](NC(=O)C[C@H](O)CCCCCCCCCCC)[C@@H](OC(=O)C[C@H](O)CCCCCCCCCCC)[C@@H]2O)O[C@H](CO)[C@H]1OP(=O)(O)O [GLA, glucopyranosyl lipid A, reference compound]	–	–	hTLR4-HEK AUC (human TLR4/MD2): 3.75; mTLR4-HEK AUC (mouse TLR4/MD2): 14.24
CCOCc1nc2c(N)nc3ccccc3c2n1CC(C)(C)O [R848]	–	–	cytokine response of C57BL/6 w.t. BMDCs (C57BL/6 w.t. BMDCs): strong response; cytokine response of mTLR4/MD2 knockout BMDCs (TLR4/MD2 KO BMDCs): retained

The next lines start with results.

EC50 (human TLR4) [nM]	logD [3]	SMILES	further results
–	> 4.5	C#Cc1ccc(C(C(=O)NC2CCCC2)N(C(=O)c2cc(-c3ccccc3)n(-c3ccccc3)n2)c2ccc(OC)cc2)cc1 (stereo not shown) [AZ606]	increase in potency in the hTLR4-HEK assay (human TLR4; relative to AZ126): 10 fold; hepatocyte CLint [1]: 36 µL/min/1e6 cells; microsomal CLint [2]: 39 µL/min/mg; solubility [4]: 2.2 µM (≈ 1.31 µg/mL); inhibition of one or more cytochrome P450 enzymes (cytochrome P450 enzymes): greatly reduced
100	2.74	COc1ccc(N(C(=O)c2cc(-c3ccccc3)n(-c3ccccc3)n2)C(C(=O)NC2CCCC2)c2ccc(CC(=O)O)cc2)cc1 (stereo not shown) [AZ635]	–
2000	–	C#Cc1ccc(C(C(=O)N[C@@H](C(=O)O)C(C)C)N(C(=O)c2cc(-c3ccccc3)n(-c3ccccc3)n2)c2ccc(OC)cc2)cc1 (stereo partly shown) [AZ792]	–
25.1	3.62	Cc1cccc(CN(C(=O)c2cc(-c3ccccc3)n(-c3ccccc3)n2)C(C(=O)NC2CCCC2)c2ccc(CC(=O)O)cc2)c1C (stereo not shown) [AZ839]	hTLR4-HEK AUC (human TLR4/MD2): 6.00; mTLR4-HEK AUC (mouse TLR4/MD2): 0.93
398	> 4.5	COc1ccc(N(C(=O)c2cc(-c3ccccc3)n(-c3ccccc3)n2)C(C(=O)NC2CCCC2)c2ccncc2)cc1 (stereo not shown) [AZ842]	–
12.3	4.3	O=C(O)Cc1ccc(C(C(=O)NC2CCCC2)N(C(=O)c2cc(-c3ccccc3)n(-c3ccccc3)n2)c2ccc(Cc3ccccc3)cc2)cc1 (stereo not shown) [AZ897]	–
